US12582625B2, “Methods for treating neuroblastoma” (priority 2015, dated 2026)
Values joined by “and” are separate entries in the source; they are usually repeats but may differ in a detail not shown here. Equal values may be shown once.

What was measured:
[1] = tested on: high-risk neuroblastoma in complete remission; experiment: NMTRC003 phase II prevention trial: event free and overall survival; assay type: in vivo, human
Excerpt: Study Design. This was an open label, single agent, multicenter clinical trial for patients with high-risk neuroblastoma in complete remission at the completion of standard therapy. […] Prior to study entry, written informed consent was obtained from the subjects' parent(s) or guardian(s) and, when appropriate, written assent was obtained from subjects. ClinicalTrials.gov Identifiers: NCT01586260/NCT02395666.
Subjects were required to have histologically confirmed International Neuroblastoma Staging System (INSS) high-risk neuroblastoma at the time of diagnosis. Subjects must have completed standard high-risk neuroblastoma (HRNB) therapy with 5-7 cycles of induction chemotherapy, surgical resection of primary tumor (if feasible), consolidative therapy with high-dose chemotherapy/autologous stem cell support and radiation therapy as indicated, and anti-GD2 antibody therapy with isotretinoin for up to 6 cycles. […] To be considered in complete remission, subjects had to have no radiographic evidence for persistent neuroblastoma by CT or MRI (and by metaiodobenzylguanidine (MIBG) in subjects whose tumors were originally MIBG avid), histologically negative bone marrow aspirate/biopsy, and normal urinary catecholamines as assessed by ratios of vanillylmandelic acid and homovanillic acid to creatinine. Subjects with residual masses or bone changes visible on CT or MRI could still be considered in CR if the lesions were negative by both MIBG and PET scans.
Dosing diaries were required to be completed for each cycle. […] The primary endpoint was Event Free Survival (EFS); secondary objectives included Overall Survival (OS) and safety. EFS was defined as the period from the first day of administration of study drug to the first occurrence of relapse or death, and OS was defined as the first day of administration of study drug until death; subjects without an event were censored at the time of last contact. Safety analysis was conducted on all subjects who received at least one dose of study drug, and included the frequency, grading, expectedness and attribution of all adverse events as well as dose interruptions, dose reductions, and treatment discontinuation.
Statistical Analysis: Estimation and hypothesis testing based on survival data. Event-free and overall survival were estimated using the method of Kaplan and Meier (Meier, 1958) while standard errors were estimated using Greenwood's formula. […] However, NMTRC003 patients enrolled on ANBL0032 represent a subset of the ANBL0032 population, patients event-free at the start of NMTRC003 therapy (6-10 months after the start of ANBL0032 therapy) (Yu et al., 2010). Therefore, it was necessary to adjust the published ANBL0032 EFS using the definition of conditional probability for a direct comparison. […]

[2] = NMTRC 002: DFMO serum pharmacokinetics in children with NB; conditions: for AUC(0-t) / Tmax / Cmax: human, serum
Procedure: Pharmacokinetic (PK) Analytical Method and Sample Collection. Patients were consented for all pharmacokinetic sampling and analysis. […] The extracted samples were injected into a liquid chromatograph equipped with an Atlantis Hilic Silica, 50×4.6 mm, 3 μm column. The mobile phase A was a mixture of Milli-Q type water with acetonitrile and ammonium acetate. The validated calibration range for this assay was from 50 to 100,000 ng/mL. […] Blood was not collected beyond 6 hours post dose as this trial was conducted on an outpatient basis, and this was judged to be an undue burden on patients.
Statistical Methods. […] Urinary polyamine levels were derived from duplicate measurements of individual samples. […] Fisher's Exact Test was used to assess the likelihood that increases in urinary polyamine levels were associated with disease progression. Friedman's test for repeated measures analysis of variance was used to assess changes in contents of individual urinary polyamines.
Samples were collected from patients prior to, and again at times 0.5, 1, 3, and 6 hours following drug administration on days 1 and 8 of the first cycle. […] Subsequent cycles commenced the day following the last day of the previous cycle.

In the case of NCCCC(N)(C(=O)O)C(F)F (centres unmarked) [DFMO, 2,5-diamino-2-(difluoromethyl) pentanoic acid], the “subjects who have relapsed to date” value ([1]; ITT population (91)) is reported as 6, the “relapses after completion of DFMO therapy (all 27 cycles)” value ([1]; follow up of up to 3.5 years) is reported as “no late relapses and None” and the “outcome of subjects with Curie score greater than 0 prior to immunotherapy” value ([1]; n=4 of 52 with known Curie score, ANBL0032 followed by DFMO) is reported as “remain in remission”. For the same molecule, the “2-year event free survival (EFS)” value ([1]; subjects previously enrolled on ANBL0032 (n=74)) was 95% (±3%) and 95% (+/−3%), the AUC0-6 hrs ([2]; 500 mg/m^2 PO BID, Cycle 1) was 39.90 ± 24.16 (mcg/mL) × hrs and the AUC0-6 hrs ([2]; 750 mg/m^2 PO BID, Cycle 1) was 47.36 ± 18.57 (mcg/mL) × hrs. The AUC0-6 hrs ([2]; 750 mg/m^2 PO BID, Cycle 2 (with etoposide)) was 62.84 ± 39.47 (mcg/mL) × hrs, the AUC0-6 hrs ([2]; 1000 mg/m^2 PO BID, Cycle 1) was 60.05 ± 34.53 (mcg/mL) × hrs and the AUC0-6 hrs ([2]; 1000 mg/m^2 PO BID, Cycle 2 (with etoposide)) was 50.18 ± 32.57 (mcg/mL) × hrs. For the same molecule, the AUC0-6 hrs ([2]; 1500 mg/m^2 PO BID, Cycle 1) was 108.38 ± 53.23 (mcg/mL) × hrs, the AUC0-6 hrs ([2]; 1500 mg/m^2 PO BID, Cycle 2 (with etoposide)) was 120.69 ± 31.22 (mcg/mL) × hrs and the “biologically effective doses of DFMO (serum concentration range)” value ([2]; from clinical benefit in this study and adult cancer prevention studies) was 50-150 μM. For the same molecule, the AUC(0-t) ([2]; oral, 500 mg/m2) was 39000 ng·h/mL, the AUC(0-t) ([2]; oral, 1500 mg/m2) was 121000 ng·h/mL and the Tmax ([2]; oral, mean tmax, all dose groups) was 2.5 to 3.75 h. It also gave a Cmax ([2]; po, 500 mg/m2, Cmax mean ± SD, 500 mg/m^2 PO BID, Cycle 1) of 9540 ± 5360 ng/mL, a Tmax ([2]; po, 500 mg/m2, tmax, 500 mg/m^2 PO BID, Cycle 1) of 3.75 ± 1.39 h and a Cmax ([2]; po, 750 mg/m2, Cmax mean ± SD, 750 mg/m^2 PO BID, Cycle 1) of 11900 ± 5220 ng/mL. For the same molecule, the Cmax ([2]; po, 750 mg/m2, Cmax mean ± SD, 750 mg/m^2 PO BID, Cycle 2 (with etoposide)) was 14200 ± 7920 ng/mL, the Tmax ([2]; po, 750 mg/m2, tmax, 750 mg/m^2 PO BID, Cycle 1) was 3.6 ± 1.26 h and the Tmax ([2]; po, 750 mg/m2, tmax, 750 mg/m^2 PO BID, Cycle 2 (with etoposide)) was 2.6 ± 0.89 h. The Cmax ([2]; po, 1000 mg/m2, Cmax mean ± SD, 1000 mg/m^2 PO BID, Cycle 1) was 14700 ± 9070 ng/mL, the Cmax ([2]; po, 1000 mg/m2, Cmax mean ± SD, 1000 mg/m^2 PO BID, Cycle 2 (with etoposide)) was 14300 ± 6180 ng/mL and the Tmax ([2]; po, 1000 mg/m2, tmax, 1000 mg/m^2 PO BID, Cycle 1) was 3.17 ± 1.6 h. It also gave a Tmax ([2]; po, 1000 mg/m2, tmax, 1000 mg/m^2 PO BID, Cycle 2 (with etoposide)) of 3 h, a Cmax ([2]; po, 1500 mg/m2, Cmax mean ± SD, 1500 mg/m^2 PO BID, Cycle 1) of 29000 ± 15000 ng/mL and a Cmax ([2]; po, 1500 mg/m2, Cmax mean ± SD, 1500 mg/m^2 PO BID, Cycle 2 (with etoposide)) of 30700 ± 8180 ng/mL. The Tmax ([2]; po, 1500 mg/m2, tmax, 1500 mg/m^2 PO BID, Cycle 1) was 2.88 ± 1.45 h, the Tmax ([2]; po, 1500 mg/m2, tmax, 1500 mg/m^2 PO BID, Cycle 2 (with etoposide)) was 2.5 ± 0.9 h and the “mean Cmax and AUC versus oral dose” value ([2]; in vivo, po) was “increased in a linear fashion”. The “Overall average serum DFMO concentration” value ([2]; patients receiving 500 mg/m^2) was 9.54 μg/mL and 52.24 μM and the “Overall average serum DFMO concentration” value ([2]; patients receiving 1500 mg/m^2) was 30.71 μg/mL and 168.10 μM.
